Laboratory results reported in ChEMBL document CHEMBL1201862, “PubChem BioAssay data set” (2004).
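Briefly, cells in 96-well plates were exposed to five compound concentrations for 48 h, and endpoints were estimated by linear interpolation. Abbreviation: GI50, concentration required for 50% inhibition of growth.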 The source made the active and inactive calls. No stated cut-off is given here; in the data, active = GI50 up to about 1.1 µM and inactive = higher.

Columns and labels:
Assay in all cases: NCI anticancer screen, dose series, 48 h
UACC-257 = test system: UACC-257
NCI/ADR-RES = test system: NCI/ADR-RES
SK-MEL-5 = test system: SK-MEL-5
HL-60 = test system: HL-60
NCI-H522 = test system: NCI-H522
SNB-19 = test system: SNB-19
HOP-92 = test system: HOP-92
HCT-15 = test system: HCT-15
OVCAR-3 = test system: OVCAR-3
PC-3 = test system: PC-3
BT-549 = test system: BT-549
UACC-62 = test system: UACC-62
SR = test system: SR
MDA-MB-231 = test system: MDA-MB-231
ACHN = test system: ACHN
CCRF-CEM = test system: CCRF-CEM
IGROV-1 = test system: IGROV-1
MCF7 = test system: MCF7
RXF 393 = test system: RXF 393
K562 = test system: K562

Compound | GI50 (UACC-257) | GI50 (NCI/ADR-RES) | GI50 (SK-MEL-5) | GI50 (HL-60) | GI50 (NCI-H522) | GI50 (SNB-19) | GI50 (HOP-92) | GI50 (HCT-15) [µM] | GI50 (OVCAR-3) | GI50 (PC-3) | GI50 (BT-549) | GI50 (UACC-62) | GI50 (SR) | GI50 (MDA-MB-231) | GI50 (ACHN) | GI50 (CCRF-CEM) | GI50 (IGROV-1) | GI50 (MCF7) | GI50 (RXF 393) | GI50 (K562)
O=C1NC(N2CCOCC2)=N/C1=C\c1ccccc1 | > 100 µM (inactive) | > 100 µM (inactive) | > 100 µM (inactive) | > 100 µM (inactive) | > 100 µM (inactive) | > 100 µM (inactive) | > 100 µM (inactive) | > 100 | > 100 µM (inactive) | > 100 µM (inactive) | > 100 µM (inactive) | > 100 µM (inactive) | > 100 µM (inactive) | > 100 µM (inactive) | > 100 µM (inactive) | > 100 µM (inactive) | > 100 µM (inactive) | > 100 µM (inactive) |  | 
COc1cc(C2c3cc(O)c(OC)cc3C3OCC2C3CO)ccc1O (configuration not stated) |  | > 100 µM (inactive) | > 100 µM (inactive) | > 100 µM (inactive) | > 100 µM (inactive) | > 100 µM (inactive) | 7.6 µM (inactive) | > 100 | > 100 µM (inactive) | > 100 µM (inactive) | > 100 µM (inactive) | > 100 µM (inactive) | > 100 µM (inactive) | > 100 µM (inactive) | > 100 µM (inactive) |  |  | > 100 µM (inactive) | > 100 µM (inactive) | > 100 µM (inactive)
Cc1n[nH]c(=S)n1/N=C/c1ccc(-c2ccc(Cl)cc2)o1 | > 100 µM (inactive) | > 100 µM (inactive) | > 100 µM (inactive) | 44.2 µM (inactive) | > 100 µM (inactive) |  | 69 µM (inactive) | > 100 | > 100 µM (inactive) | > 100 µM (inactive) | 11.3 µM (inactive) |  | > 100 µM (inactive) | 73.5 µM (inactive) | 63.7 µM (inactive) |  | > 100 µM (inactive) | > 100 µM (inactive) | 43 µM (inactive) | > 100 µM (inactive)
CNCCCn1c2ccccc2c2c3c(c(-c4ccsc4)cc21)C(=O)NC3=O | 1.58 µM (inactive) | 0.71 µM (active) | 0.735 µM (active) | 2.22 µM (inactive) | 1.66 µM (inactive) | 1.6 µM (inactive) |  | 1.51 | 1.15 µM (inactive) | 0.178 µM (active) | 2.1 µM (inactive) | 1.49 µM (inactive) | < 0.01 µM (active) | 1.57 µM (inactive) | < 0.0192 µM (active) | 0.216 µM (active) | 1.09 µM (active) | 0.0984 µM (active) | 0.0112 µM (active) | 2.81 µM (inactive)
C=CCc1cccc2cc(C(=O)Nc3ccccn3)c(=N)oc12 | > 100 µM (inactive) | > 100 µM (inactive) | > 100 µM (inactive) | > 100 µM (inactive) |  | > 100 µM (inactive) | > 100 µM (inactive) | > 100 | > 100 µM (inactive) | > 100 µM (inactive) | > 100 µM (inactive) | > 100 µM (inactive) | > 100 µM (inactive) | > 100 µM (inactive) | 45.4 µM (inactive) | > 100 µM (inactive) | > 100 µM (inactive) | > 100 µM (inactive) | > 100 µM (inactive) | > 100 µM (inactive)
O=[N+]([O-])c1cc2c(c([N+](=O)[O-])c1)NCc1ccccc1O2 | > 100 µM (inactive) | > 100 µM (inactive) | > 100 µM (inactive) | > 100 µM (inactive) | > 100 µM (inactive) |  | > 100 µM (inactive) | > 100 | > 100 µM (inactive) | > 100 µM (inactive) | > 100 µM (inactive) | > 100 µM (inactive) | 55.5 µM (inactive) | > 100 µM (inactive) | > 100 µM (inactive) | 24.3 µM (inactive) | > 100 µM (inactive) | > 100 µM (inactive) | 16 µM (inactive) | > 10 µM (inactive)
O=C(CCc1cc(O)cc(O)c1)NCCc1cc(O)cc(O)c1 | > 100 µM (inactive) | > 100 µM (inactive) | > 100 µM (inactive) |  | > 100 µM (inactive) | > 100 µM (inactive) | > 100 µM (inactive) | > 100 | > 100 µM (inactive) | > 100 µM (inactive) | > 100 µM (inactive) | > 100 µM (inactive) | > 100 µM (inactive) | > 100 µM (inactive) | > 100 µM (inactive) | > 10 µM (inactive) | > 100 µM (inactive) | > 100 µM (inactive) | > 100 µM (inactive) | > 100 µM (inactive)
O=C1OC2(c3ccccc31)c1cc(I)c(O)c(I)c1Oc1c2cc(I)c(O)c1I [ERYTHROSINE] | > 100 µM (inactive) | > 100 µM (inactive) | > 100 µM (inactive) |  | 19.3 µM (inactive) | > 100 µM (inactive) | > 100 µM (inactive) | 31.3 | 5.46 µM (inactive) | > 100 µM (inactive) | 45.8 µM (inactive) | 75.9 µM (inactive) | > 100 µM (inactive) | > 100 µM (inactive) | 96.8 µM (inactive) | > 100 µM (inactive) | > 100 µM (inactive) | > 100 µM (inactive) | 5.79 µM (inactive) | > 100 µM (inactive)
